Non-standard residues stand in square brackets, D forms with d. Residues, ends and D or L forms follow the SMILES beside them.
The compounds below were run against T1, Galanin receptor type 2 (Rattus norvegicus, UniProt O08726).
T1 sequence (O08726 whole entry): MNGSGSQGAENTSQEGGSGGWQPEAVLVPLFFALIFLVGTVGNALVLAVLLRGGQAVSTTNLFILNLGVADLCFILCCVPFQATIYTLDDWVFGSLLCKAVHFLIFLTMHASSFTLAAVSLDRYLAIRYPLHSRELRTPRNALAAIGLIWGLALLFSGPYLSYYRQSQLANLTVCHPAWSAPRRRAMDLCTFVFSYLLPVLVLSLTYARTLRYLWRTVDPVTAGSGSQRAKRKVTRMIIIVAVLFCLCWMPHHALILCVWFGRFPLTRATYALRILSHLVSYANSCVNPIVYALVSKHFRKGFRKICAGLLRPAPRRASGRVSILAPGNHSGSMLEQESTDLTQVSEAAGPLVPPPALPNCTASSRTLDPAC
For H-GWTLNSAGYLLGPPPALALA-NH2 [M40], the Ki was 18 nM.
`CC(C)C[C@H](NC(=O)[C@H](CC(C)C)NC(=O)[C@@H](Cc1c[nH]c2ccccc12)NC(=O)[C@H](Cc1ccccc1)NC(=O)[C@@H](Cc1c[nH]c2ccccc12)NC(=O)[C@H](CCC(N)=O)NC(=O)[C@H](CCC(N)=O)NC(=O)[C@@H]1CCCN1C(=O)[C@H](CCCCN)NC(=O)[C@@H]1CCCN1C(=O)[C@@H](CCCNC(=N)N)NC(=O)[C@@H]1CCCN1C(=O)CNC(=O)[C@H](CC(C)C)NC(=O)[C@H](CC(C)C)NC(=O)[C@H](Cc1ccc(O)cc1)NC(=O)CNC(=O)[C@H](C)NC(=O)[C@H](CO)NC(=O)[C@H](CC(N)=O)NC(=O)[C@H](CC(C)C)NC(=O)[C@@H](NC(=O)[C@H](Cc1c[nH]c2ccccc12)NC(=O)CN)[C@@H](C)O)C(N)=O` [Gal(1-13)-Std I] (H-GWTLNSAGYLLGP[dR]PKPQQ[dW]F[dW]LL-NH2) gave a Ki of 9.1 nM.
“H-ELEPEDEARPGGFDRLQSQDKAIRTIMEFLAFLHLKEAGAL-NH2 [GMAP (1-41)]” was tested, and the Ki was 840 nM.

Reference: BindingDB's records for doi:10.1124/mol.52.3.337 (The Schering Plough Research Institute, 1997)
